# Laboratory results reported in patent US6004934A, “Tetrapeptide derivative” (Teikoku Hormone Mfg. Co., Ltd., priority 1991, dated 1999).
# Test system: lymphocytic leukemia P388 cells
# Assay: screening of cytostatic activity using lymphocytic leukemia P388 cells
# Format: cell-based
# Excerpt: The screening of cytostatic activity was made using lymphocytic leukemia P388 cells.
structure (smiles),measurement,value
CC[C@H](C)[C@@H]([C@@H](CC(=O)N1CCC[C@H]1[C@H](OC)[C@@H](C)C(=O)N[C@@H](Cc1ccccc1)c1nccs1)OC)N(C)C(=O)[C@@H](NC(=O)[C@H](C(C)C)N(C)C)C(C)C [Dolastatin 10],ED50,0.7 ng/mL
